Source: US20110230478A1 (Bayer ScienceCrop AG, priority 2008, published 2011)

Assay: logP by HPLC on reversed-phase columns (C 18), EEC Directive 79/831 Annex V.A8
Format: physicochemical
Conditions: LC-MS, pH 2.7, 0.1% aqueous formic acid and acetonitrile

Structure (SMILES)	logP [b]
COCC(C)Nc1nc(Nc2ccc(NC3CC3)nc2)ncc1Cl (centres unmarked) [II-3]	1.17[b]

Same assay, conditions: method marker [a]

Structure (SMILES)	logP
CC(=O)c1cccc(Nc2ncc(Cl)c(NC3CCCCC3)n2)c1 [Example 262]	2.53[a]

Same assay, conditions: method marker [a]; footnote not given

Structure (SMILES)	logP
COc1cc(Nc2ncc(Cl)c(NCCO)n2)cc(OC)c1.Cl [Example 54]	1.26[a]
CCC(C)N(C)c1nc(Nc2cccc(S(=O)(=O)N(C)C)c2)ncc1Cl (centres unmarked) [Example 52]	3.33[a]
CCC(CO)Nc1nc(Nc2ccccc2)ncc1Cl (centres unmarked) [Example 18]	1.41[a]
CNc1nc(Nc2ccccc2)ncc1Cl [Example 35]	1.27[a]
CC(C)N(C)c1nc(Nc2ccccc2)ncc1Cl.Cl [Example 46]	2.45[a]
COCC(C)Nc1nc(Nc2cccc(S(=O)(=O)N3CCOCC3)c2)ncc1Cl (centres unmarked) [Example 29]	2.1[a];
CC(C)Nc1nc(Nc2ccccc2)ncc1Cl [Example 36]	1.77[a]
CC(C)(C)Nc1nc(Nc2ccc(S(=O)(=O)N3CCOCC3)cc2)ncc1Cl [Example 64]	2.84[a]

The remaining lines, values ahead:

logP	Structure (SMILES)
2.12[a]	CCCCNc1nc(Nc2ccccc2)ncc1Cl [Example 32]
2.05[a];	COCCNc1nc(Nc2ccc(N3CCN(C(=O)OC(C)(C)C)CC3)cc2)ncc1Cl [Example 7]
2.09[a]	COCCNc1nc(Nc2ccc(C(C)C)cc2)ncc1Cl [Example 11]
1.49[a];	COCCNc1nc(Nc2cccc(C(C)=O)c2)ncc1Cl [Example 5]
2.59[a]	CSC[C@H](C)Nc1nc(Nc2ccc(S(=O)(=O)N(C)C)cc2)ncc1Cl [Example 30]
1.69[a]	COCC(C)Nc1nc(Nc2ccc(OC(C)C)cc2)ncc1Cl (centres unmarked) [Example 8]

Same assay, conditions: method marker [b] (compound 257: pH2.7)

Structure (SMILES)	logP
CC(C)Nc1nc(Nc2cccc(C(F)F)c2)ncc1Cl [Example 281]	2.4[b]
CC(C)(C)OC(=O)N1CCN(c2ccc(Nc3ncc(Cl)c(NC4CCCCC4)n3)cc2)CC1 [Example 264]	2.95[b]
CNc1cccc(Nc2ncc(Cl)c(NC(C)C)n2)c1 [Example 292]	1.32[b]
CC(C)Nc1nc(Nc2cccc(Cn3cccn3)c2)ncc1Cl [Example 298]	1.7[b]

More lines, now with the values ahead:

logP	Structure (SMILES)
1.69[b]	CCCNc1nc(Nc2ccccc2)ncc1Cl [Example 280]
0.7[b]	OCCNc1nc(Nc2ccccc2)ncc1Cl [Example 285]
2.37[b]	CC(C)CCNc1nc(Nc2ccccc2)ncc1Cl [Example 277]

Same assay, conditions: method marker [b]; footnote not given; compound 68 value matches logP (pH 2.3)

Structure (SMILES)	logP
COCC(C)Nc1nc(Nc2cc(Cl)cc(Cl)c2)ncc1Br (centres unmarked) [Example 114]	4.32[b]
COCC(C)Nc1nc(Nc2ccc3c(c2)OCO3)ncc1Cl (centres unmarked) [Example 97]	1.56[b]
COCC(C)Nc1nc(Nc2ccc(C(=O)OC)c(Cl)c2)ncc1Br (centres unmarked) [Example 115]	3.14[b]
COCC(C)Nc1nc(Nc2cccc(S(=O)(=O)N3CCOCC3)c2)ncc1Cl (centres unmarked) [Example 29]	2.04[b]
COCC(C)Nc1nc(Nc2cccc(NC(C)=O)c2)ncc1Br (centres unmarked) [Example 80]	1.11[b]

Results, then the compound that gave them:

logP	Structure (SMILES)
2.77[b]	COCC(C)Nc1nc(Nc2ccc(SC)c(Cl)c2)ncc1Cl (centres unmarked) [Example 89]
2.05[b]	COCCNc1nc(Nc2ccc(N3CCN(C(=O)OC(C)(C)C)CC3)cc2)ncc1Cl [Example 7]
1.56[b]	COCC(C)Nc1nc(Nc2ccc(OC)cc2)ncc1Cl (centres unmarked) [Example 86]
1.49[b]	COCCNc1nc(Nc2cccc(C(C)=O)c2)ncc1Cl [Example 5]
2.36[b]	CCC(=O)c1ccc(Nc2ncc(Cl)c(NC(C)COC)n2)cc1 (centres unmarked) [Example 104]

Same assay, conditions: method marker [c]

Structure (SMILES)	logP
OCCNc1nc(Nc2ccccc2)ncc1Cl [Example 285]	1.83[c];

Same assay, conditions: pH 2.3, 0.1% aqueous phosphoric acid and acetonitrile; read-out: logP [a]

Structure (SMILES)	chromatographic logP
CCC(CC)Nc1nc(Cl)ncc1Cl [Example V-23]	3.39

Same assay, conditions: pH 2.3, logP [a]

Structure (SMILES)	chromatographic logP
CC(C)N(C)c1nc(Cl)ncc1Cl [Example V-11, 2,5-dichloro-N-methyl-N-(propan-2-yl)pyrimidine-4-amine]	3.16
CCNc1nc(Cl)ncc1Cl [Example V-20, 2,5-dichloro-N-ethylpyrimidine-4-amine]	1.93
CCN(C)c1nc(Cl)ncc1Cl [Example V-19, 2,5-dichloro-N-ethyl-N-methylpyrimidine-4-amine]	2.68
CCC(C)Nc1nc(Cl)ncc1Cl (centres unmarked) [Example V-14, 2,5-dichloro-N-(butan-2-yl)pyrimidine-4-amine]	2.94

Same assay, conditions: reversed-phase HPLC column (C 18), pH 2.3, method marker [b]; footnote not given; compound 68 value matches logP (pH 2.3); read-out: logP

Structure (SMILES)	chromatographic logP
CCCNc1nc(Nc2ccccc2)ncc1C#N [Example 68, 2-(Phenylamino)-4-(propylamino)pyrimidine-5-carbonitrile]	2.68

Same assay, conditions: reversed-phase HPLC column (C 18), pH 2.3, pH 2.3, 0.1% aqueous phosphoric acid and acetonitrile; read-out: logP [a]

Structure (SMILES)	chromatographic logP
Nc1cccc(CS(=O)(=O)NCc2ccccc2)c1 [IV-8, 1-(3-aminophenyl)-N-benzylmethanesulphonamide]	1.32
Clc1ncc(Cl)c(NC2CCCCC2)n1 [Example V-18, 2,5-dichloro-N-cyclohexylpyrimidine-4-amine]	3.47
CCCN(C)c1nc(Cl)ncc1Cl [Example V-25, 2,5-dichloro-N-methyl-N-propylpyrimidine-4-amine]	3.31
CCCNc1nc(Nc2ccccc2)ncc1C#N [Example 68, 2-(Phenylamino)-4-(propylamino)pyrimidine-5-carbonitrile]	2.68
CC(C)Nc1nc(Cl)ncc1Br [Example V-10, 5-bromo-2-chloro-N-(propan-2-yl)pyrimidine-4-amine]	2.62
CSCC(C)Nc1nc(Cl)ncc1Cl (centres unmarked) [Example V-6, 2,5-dichloro-N-[1-(methylsulphanyl)propan-2-yl]pyrimidine-4-amine]	2.73
CCC(CO)Nc1nc(Cl)ncc1Cl (centres unmarked) [Example V-4, 2,5-dichloro-N-(1-hydroxybutan-2-yl)pyrimidine-4-amine]	1.65
CC(C)CCNc1nc(Cl)ncc1Cl [Example V-22, 2,5-dichloro-N-(3-methylbutyl)pyrimidine-4-amine]	3.45
CCCCCNc1nc(Cl)ncc1Cl [Example V-31, 2,5-dichloro-N-(pentyl)pyrimidine-4-amine]	3.51

Same assay, conditions: values marked [a]; pH 2.3

Structure (SMILES)	logP
CSCC(C)(C)Nc1nc(Nc2cccc(SC)c2)ncc1Cl [Example 175]	3.48[a];
CCC(COC)N(C)c1nc(Nc2ccccc2)ncc1Br (centres unmarked) [Example 232]	2.23[a]
CCC(C)N(C)c1nc(Nc2cccc(C(C)=O)c2)ncc1Cl (centres unmarked) [Example 179]	2.88[a]
CSCC(C)(C)Nc1nc(Nc2ccccc2)ncc1Cl [Example 174]	2.68[a];

Same assay, conditions: values marked [b]; footnote not given

Structure (SMILES)	logP
CC(C)Nc1nc(Nc2cccc(C#N)c2)ncc1Cl [Example 180]	2.21[b]
COCC(C)Nc1nc(Nc2cccc(NC(=O)C(C)(C)C)c2)ncc1Cl (centres unmarked) [Example 147]	1.9[b]
COCC(C)Nc1nc(Nc2cccc(S(=O)(=O)N3CCCCC3)c2)ncc1Cl (centres unmarked) [Example 150]	2.77[b]
C=C(C)C(=O)Nc1cccc(Nc2ncc(Cl)c(NC(C)C)n2)c1 [Example 196]	1.66[b]
COCC(C)Nc1nc(Nc2cccc(C(=O)N(C)C)c2)ncc1Cl (centres unmarked) [Example 155]	1.47[b]
CSc1ccc(Nc2ncc(Cl)c(NC(C)C)n2)cc1Cl [Example 187]	2.91[b]
CC(C)Nc1nc(Nc2cccc(OC(F)(F)C(F)F)c2)ncc1Cl [Example 211]	2.88[b]
COCC(C)Nc1nc(Nc2cccc(NC(=O)C3(C)CC3)c2)ncc1Cl (centres unmarked) [Example 162]	1.78[b]
COCC(C)Nc1nc(Nc2ccc(N(C(C)=O)C3CCCCC3)cc2)ncc1Cl (centres unmarked) [Example 161]	2.33[b]
COCC(Nc1nc(Nc2ccccc2)ncc1Br)C(C)C (centres unmarked) [Example 224]	2.55[b]
CCOC(=O)Nc1cccc(Nc2ncc(Cl)c(NC(C)C)n2)c1 [Example 216]	1.81[b]
CCN(C)c1nc(Nc2ccccc2)ncc1Cl [Example 241]	2.11[b]
COCC(C)Nc1nc(Nc2cccc(NC(=O)c3ccco3)c2)ncc1Cl (centres unmarked) [Example 168]	1.68[b]
COCC(C)Nc1nc(Nc2cccc(NC=O)c2)ncc1Br (racemic) [Example 132]	1.43[b]
COC(=O)Nc1cccc(Nc2ncc(Cl)c(NC(C)C)n2)c1 [Example 204]	1.59[b]
CC(C)Nc1nc(Nc2cccc(S(=O)(=O)N3CCCCC3)c2)ncc1Cl [Example 198]	2.08[b]
CC(C)Nc1nc(Nc2cccc(OC(F)(F)F)c2)ncc1Cl [Example 185]	3.26[b]

Other lines, results leading:

logP	Structure (SMILES)
1.39[b]	COCC(C)Nc1nc(Nc2ccc(O)c(C)c2)ncc1Cl (centres unmarked) [Example 171]
1.66[b]	CCN(C(C)=O)c1ccc(Nc2ncc(Cl)c(NC(C)C)n2)cc1 [Example 191]
1.38[b]	CNC(=O)c1ccc(Nc2ncc(Cl)c(NC(C)COC)n2)cc1 (racemic) [Example 135]
1.71[b]	CC(C)Nc1nc(Nc2ccc(NC(=O)C3(C)CC3)cc2)ncc1Cl [Example 194]
1.34[b]	COCC(C)Nc1nc(Nc2ccc(O)c(F)c2)ncc1Cl (centres unmarked) [Example 160]
2.26[b]	COCC(C)Nc1nc(Nc2ccc(CC(=O)C(C)(C)C)cc2)ncc1Cl (centres unmarked) [Example 151]
1.81[b]	CC(C)Nc1nc(Nc2ccc(NC(=O)C(C)(C)C)cc2)ncc1Cl [Example 188]
2.06[b]	COCC(C)Nc1nc(Nc2ccc(C(=O)NC(C)(C)C)cc2)ncc1Cl (racemic) [Example 137]
2.61[b]	COCC(C)Nc1nc(Nc2ccc(OC(F)(F)C(F)F)cc2)ncc1Cl (centres unmarked) [Example 158]
1.51[b]	COCC(C)Nc1nc(Nc2ccc(C(=O)N(C)C)cc2)ncc1Cl (centres unmarked) [Example 148]
1.68[b]	COCC(C)Nc1nc(Nc2ccc(O)c(C(C)=O)c2)ncc1Cl (centres unmarked) [Example 159]
2.88[b]	CC(C)Nc1nc(Nc2ccc(SC(F)F)cc2)ncc1Cl [Example 212]
1.63[b]	CC(C)Nc1nc(Nc2ccc3cc[nH]c3c2)ncc1Cl [Example 215]
2.8[b]	COCC(C)Nc1nc(Nc2ccc(SC(F)F)cc2)ncc1Cl (centres unmarked) [Example 172]
1.24[b]	CC(C)Nc1nc(Nc2ccc(O)cc2)ncc1Cl [Example 213]
1.41[b]	COCC(C)Nc1nc(Nc2ccc(N3C(=O)CN(C)C3=O)cc2)ncc1Cl (centres unmarked) [Example 227]

Same assay, conditions: values marked [c]; footnote not given

Structure (SMILES)	logP
CSCC(C)(C)Nc1nc(Nc2cccc(SC)c2)ncc1Cl [Example 175]	4.59[c]
CCN(C)c1nc(Nc2ccccc2)ncc1Cl [Example 241]	3.85[c];
CSCC(C)(C)Nc1nc(Nc2ccccc2)ncc1Cl [Example 174]	4.18[c]
